This series has as its system murine vertebral cancellous bone. Format: in vivo, mouse. How it is done:
The distal femora and lumbar vertebrae were fixed in 4° C. Millonig's phosphate-buffered 10% formalin, pH 7.4, embedded undecalcified in methyl methacrylate and stained (7,9,13). The histomorphometric examination was done with a computer and digitizer tablet (OsteoMetrics Inc. Version 3.00, Atlanta, Ga.) interfaced to a Zeiss Axioscope (Carl Zeiss, Inc., Thornwood, N.Y.) with a drawing tube attachment. All cancellous measurements were two-dimensional, confined to the secondary spongiosa and made at ×400 magnification (numerical aperture 0.75). The terminology and units used are those recommended by the Histomorphometry Nomenclature Committee of the American Society for Bone and Mineral Research (14). The trabecular width and osteoid width were measured directly. Trabecular spacing and number were calculated (15). Only TRAPase-positive cells were included in the osteoclast perimeter. The rate of bone formation (μm^2/μm/d) and turnover (%/d) were calculated (7).
To directly establish whether glucocorticoids initially accelerate bone resorption in the mouse, the vertebral cancellous bone histology were examined in an additional group of somewhat younger mice (5-mo-old) after 7 days administration of the higher dose of prednisolone or placebo (n=5).

Molecules are shown by their SMILES.

For the molecule `C[C@]12C=CC(=O)C=C1CC[C@@H]1[C@@H]2[C@@H](O)C[C@@]2(C)[C@H]1CC[C@]2(O)C(=O)CO` [prednisolone], for the setting “higher dose, 7 days”, the “Decrease in osteoblast perimeter” value amounted to 59% and the “Increase in osteoclast perimeter” value is 96%. Under “mouse, in vivo”, this molecule had an Osteoblast perimeter of 2.1±1.1% and an Osteoclast perimeter of 1.00±0.41%.

These data come from US6660468B1, “Vitro and in vivo models for screening compounds to prevent glucocorticoid-induced bone destruction” (Board of Trustees of the University of Arkansas, priority 1998, dated 2003).
